Patent US9079899B2, “Anti-staphylococcal celecoxib derivatives” (THE OHIO STATE UNIVERSITY, priority 2010, dated 2015)
≈ marks a conversion by molar mass, not a printed value. Read-outs that look alike come from different tables or passages of the source.

Legend:
MRSA (SCCmec VT) = test: MIC, broth microdilution; format: cell-based, methicillin-resistant Staphylococcus aureus
[1] = tested on: S. epidermidis (ATCC 35984); test: MIC, broth microdilution; format: cell-based; settings: for MIC S. epidermidis (ATCC 35984): CAMHB, 24 h, 37° C.; for MIC: S. epidermidis (ATCC 35984)
S. aureus (ATCC 29213) = test: MIC, broth microdilution; format: cell-based
[2] = tested on: HT-29 human colon adenocarcinoma cells; test: Antiproliferative assay (MTT); format: cell-based; settings: 24-h exposure, 10% FBS-supplemented RPMI 1640, MTT; for IC50: Homo sapiens, HT-29
Protocol: As celecoxib has been reported to be cytotoxic to cancer cells, the growth inhibitory activities of celecoxib and selected derivatives were assessed in. HT-29 human colon adenocarcinoma cells after 24-h exposure in 10% FBS-supplemented RPMI 1640 medium.
Antiproliferative assay. The cytotoxicity of individual test agents in HT-29 human colon adenocarcinoma cells was evaluated by using the 3-(4,5-dimethylthiazol-2-yl)-2,5-diphenyltetrazolium (MTT) assay. Briefly, HT-29 cells were seeded into 96-well plates at 1×10^4 cells/well (with a minimum of 6 wells per test condition) in RPMI 1640 medium supplemented with 10% FBS and 10 μg/ml of gentamicin. After overnight incubation at 37° C. under 5% CO2, the medium from each well was removed and replenished with fresh aliquots of the same medium containing various concentrations of test agents dissolved in DMSO (final concentration, 0.1%). Control cells were treated with DMSO alone at a concentration equal to that in drug-treated cells. After 24 h of drug exposure, the medium was removed and replaced by 100 μl of 0.5 mg/ml MTT in 10% FBS-containing medium, and the cells were incubated in the CO2 incubator at 37° C. for 2 h. Subsequently, medium was removed from each well, and the reduced MTT dye was dissolved with 100 μl of DMSO per well. Absorbance at 570 nm was measured with a plate reader. The 50% inhibitory concentration (IC50) of each drug was determined from dose-response curves by using CalcuSyn software (Biosoft, Cambridge, United Kingdom).

MRSA (ATCC 33592) = test: MIC, broth microdilution; format: cell-based, methicillin-resistant Staphylococcus aureus
S. aureus (ATCC 12598) = test: MIC, broth microdilution; format: cell-based; settings: Staphylococcus aureus, ATCC12598
MRSA (ATCC 49476) = test: MIC, broth microdilution; format: cell-based, methicillin-resistant Staphylococcus aureus; settings: Staphylococcus aureus
[3] = Table XIII, S. aureus (SSCmecVT)
[4] = Staphylococcus aureus, ATCC29213, 24 h, CAMHB, 24 h, 37° C., read-out: MIC S. aureus (ATCC 29213)

SMILES	MIC S. epidermidis (ATCC 35984) [1]	MIC S. aureus (ATCC 29213) (S. aureus (ATCC 29213); CAMHB, 24 h, 37° C.)	IC50 HT-29 cells [2]	other results
CC1(C)S[C@@H]2[C@H](NC(=O)[C@H](N)c3ccccc3)C(=O)N2[C@H]1C(=O)O [Ampicillin]				MIC (MRSA (SCCmec VT); [3]): > 64 µg/mL
O=C(N[C@H](CO)[C@H](O)c1ccc([N+](=O)[O-])cc1)C(Cl)Cl [Chloramphenicol, chloramphenicol, reference compound]				MIC (MRSA (SCCmec VT); [3]): > 64 µg/mL
CCCCc1ccc(-c2cc(C(F)(F)F)nn2-c2ccc(C(N)=O)cc2)cc1 [Compound 10]	did not exhibit appreciable activity at 64 μg/ml or improved activity relative to celecoxib	did not exhibit appreciable activity at 64 μg/ml or improved activity relative to celecoxib		
NS(=O)(=O)c1ccc(-n2nc(C(F)(F)F)cc2-c2ccc(-c3ccc(Cl)cc3)cc2)cc1 [Compound 11]	8 µg/mL (≈ 16.7 µM)	4 µg/mL (≈ 8.37 µM)	12.5 µg/mL (≈ 26.2 µM)	
FC(F)(F)c1cc(-c2ccc3c(ccc4ccccc43)c2)n(-c2ccccc2)n1 [Compound 21]	did not exhibit appreciable activity at 64 μg/ml or improved activity relative to celecoxib	did not exhibit appreciable activity at 64 μg/ml or improved activity relative to celecoxib		
NCC(=O)Nc1ccc(-n2nc(C(F)(F)F)cc2-c2ccc(-c3ccc(C(F)(F)F)cc3)cc2)cc1 [Compound 22]	did not exhibit appreciable activity at 64 μg/ml or improved activity relative to celecoxib	did not exhibit appreciable activity at 64 μg/ml or improved activity relative to celecoxib		
NCC(=O)Nc1ccc(-n2nc(C(F)(F)F)cc2-c2ccc3c(ccc4ccccc43)c2)cc1 [Compound 23]	4 µg/mL (≈ 8.69 µM)	4 µg/mL (≈ 8.69 µM)	3.6 µg/mL (≈ 7.82 µM)	
NCC(=O)Nc1ccc(-n2nc(C(F)(F)F)cc2-c2ccc3c(c2)Nc2ccccc2S3)cc1 [Compound 24]	4 µg/mL (≈ 8.31 µM)	4 µg/mL (≈ 8.31 µM)	6.2 µg/mL (≈ 12.9 µM)	
NCC(=O)Nc1ccc(-n2nc(C(F)(F)F)cc2-c2ccc3oc4ccccc4c3c2)cc1 [Compound 25]	4 µg/mL (≈ 8.88 µM)	4 µg/mL (≈ 8.88 µM)	6.5 µg/mL (≈ 14.4 µM)	
NCCC(=O)Nc1ccc(-n2nc(C(F)(F)F)cc2-c2ccc(-c3ccc(C(F)(F)F)cc3)cc2)cc1 [Compound 26]	4 µg/mL (≈ 7.72 µM)	4 µg/mL (≈ 7.72 µM)	4.2 µg/mL (≈ 8.1 µM)	
NCCC(=O)Nc1ccc(-n2nc(C(F)(F)F)cc2-c2ccc3c(ccc4ccccc43)c2)cc1 [Compound 27]	4 µg/mL (≈ 8.43 µM)	4 µg/mL (≈ 8.43 µM)	6 µg/mL (≈ 12.6 µM)	
NCCC(=O)Nc1ccc(-n2nc(C(F)(F)F)cc2-c2ccc3c(c2)Nc2ccccc2S3)cc1 [Compound 28]	4 µg/mL (≈ 8.07 µM)	4 µg/mL (≈ 8.07 µM)	7.5 µg/mL (≈ 15.1 µM)	
NCCC(=O)Nc1ccc(-n2nc(C(F)(F)F)cc2-c2ccc3oc4ccccc4c3c2)cc1 [Compound 29]	4 µg/mL (≈ 8.61 µM)	4 µg/mL (≈ 8.61 µM)	7.2 µg/mL (≈ 15.5 µM)	
NCCCC[C@@H](N)C(=O)Nc1ccc(-n2nc(C(F)(F)F)cc2-c2ccc3c(ccc4ccccc43)c2)cc1 [Compound 30]	4 µg/mL (≈ 7.52 µM)	4 µg/mL (≈ 7.52 µM)	3.2 µg/mL (≈ 6.02 µM)	
NCCCC[C@@H](N)C(=O)Nc1ccc(-n2nc(C(F)(F)F)cc2-c2ccc3c(c2)Nc2ccccc2S3)cc1 [Compound 31]	4 µg/mL (≈ 7.24 µM)	4 µg/mL (≈ 7.24 µM)	17.5 µg/mL (≈ 31.7 µM)	
NCCCC[C@@H](N)C(=O)Nc1ccc(-n2nc(C(F)(F)F)cc2-c2ccc3oc4ccccc4c3c2)cc1 [Compound 32]	did not exhibit appreciable activity at 64 μg/ml or improved activity relative to celecoxib	did not exhibit appreciable activity at 64 μg/ml or improved activity relative to celecoxib		
NCCCC[C@H](N)C(=O)Nc1ccc(-n2nc(C(F)(F)F)cc2-c2ccc(-c3ccc(C(F)(F)F)cc3)cc2)cc1 [Compound 33]	4 µg/mL (≈ 6.95 µM)	4 µg/mL (≈ 6.95 µM)	3.3 µg/mL (≈ 5.73 µM)	
NCCCC[C@H](N)C(=O)Nc1ccc(-n2nc(C(F)(F)F)cc2-c2ccc3c(ccc4ccccc43)c2)cc1 [Compound 34]	4 µg/mL (≈ 7.52 µM)	2 µg/mL (≈ 3.76 µM)	19.5 µg/mL (≈ 36.7 µM)	
NCCCC[C@H](N)C(=O)Nc1ccc(-n2nc(C(F)(F)F)cc2-c2ccc3c(c2)Nc2ccccc2S3)cc1 [Compound 35]	4 µg/mL (≈ 7.24 µM)	4 µg/mL (≈ 7.24 µM)	5.2 µg/mL (≈ 9.41 µM)	
NS(=O)(=O)Nc1ccc(-n2nc(C(F)(F)F)cc2-c2ccc(-c3ccccc3)cc2)cc1 [Compound 42, N-[4-(5-Biphenyl-4-yl-3-trifluoromethyl-pyrazol-1-yl)-phenyl]-aminosulfonamide]				MIC (MRSA (ATCC 33592); Staphylococcus aureus, read-out: MIC MRSA (ATCC 33592)): 1 µg/mL (≈ 2.18 µM); IC50 [2]: 16 µg/mL (≈ 34.9 µM); MIC (MRSA (SCCmec VT); Staphylococcus aureus, MRSA, read-out: MIC MRSA (SCCmec VT)): 1 µg/mL (≈ 2.18 µM); MIC (S. aureus (ATCC 29213); [4]): 1 µg/mL (≈ 2.18 µM); MIC (S. aureus (ATCC 12598)): 1 µg/mL (≈ 2.18 µM); MIC (MRSA (ATCC 49476)): 1 µg/mL (≈ 2.18 µM)
NS(=O)(=O)Nc1ccc(-n2nc(C(F)(F)F)cc2-c2ccc3ccccc3c2)cc1 [Compound 45, N-[4-(5-Naphthalen-2-yl-3-trifluoromethyl-pyrazol-1-yl)-phenyl]-aminosulfonamide]				IC50 [2]: 19 µg/mL (≈ 43.9 µM); MIC (S. aureus (ATCC 29213); [4]): 1 µg/mL (≈ 2.31 µM)
NC[C@H]1O[C@H](O[C@H]2[C@H](O)[C@@H](O[C@H]3O[C@H](CO)[C@@H](O)[C@H](N)[C@H]3O)[C@H](N)C[C@@H]2N)[C@H](O)[C@@H](O)[C@@H]1O [Kanamycia]				MIC (MRSA (SCCmec VT); [3]): > 64 µg/mL
CS(=O)(=O)c1ccc(C2=C(c3ccccc3)C(=O)OC2)cc1 [Rofecoxib, rofecoxib, reference compound]				MIC (MRSA (ATCC 33592); Staphylococcus aureus, Table IX, MRSA (ATCC 33592), read-out: MIC): > 64 µg/mL; MIC (MRSA (ATCC 33592); Table IX, MRSA (ATCC 33592)): NE (no effect of the test agent at 64 μg/ml); MIC ([1]; Staphylococcus epidermidis, ATCC35984, Table IX, read-out: MIC): > 64 µg/mL; MIC ([1]; Table IX): NE (no effect of the test agent at 64 μg/ml); MIC (MRSA (SCCmec VT); Staphylococcus aureus, MRSA, Table IX, MRSA (SCCmec VT), read-out: MIC): > 64 µg/mL; MIC (MRSA (SCCmec VT); Table IX, MRSA (SCCmec VT)): NE (no effect of the test agent at 64 μg/ml); MIC (S. aureus (ATCC 29213); Staphylococcus aureus, ATCC29213, Table IX, S. aureus (ATCC 29213), read-out: MIC): > 64 µg/mL; MIC (S. aureus (ATCC 29213); Table IX, S. aureus (ATCC 29213)): NE (no effect of the test agent at 64 μg/ml)
[H]/N=C(/N)N[C@H]1[C@H](O)[C@@H](O)[C@H](O[C@@H]2O[C@@H](C)[C@](O)(C=O)[C@H]2O[C@@H]2O[C@@H](CO)[C@H](O)[C@@H](O)[C@@H]2NC)[C@@H](N/C(N)=N\[H])[C@@H]1O [Streptomycin, streptomycin, reference compound]				MIC (MRSA (SCCmec VT); [3]): > 64 µg/mL
CN(C)[C@@H]1C(O)=C(C(N)=O)C(=O)[C@@]2(O)C(O)=C3C(=O)c4c(O)cccc4[C@@](C)(O)[C@H]3C[C@@H]12 [Tetracycline, tetracycline, reference compound]				MIC (MRSA (SCCmec VT); [3]): 16 µg/mL (≈ 36 µM)
